{
  "source": "patent US20240368619A1",
  "about": "“METHODS AND COMPOSITIONS FOR PPO HERBICIDE TOLERANCE” (SESVanderHave NV, priority 2021, published 2024)",
  "assay_type_in_all_cases": "in vivo, Beta vulgaris",
  "key": {"[1]": {"test_system": "edited sugar beet plants", "experiment": "In vitro growth of regenerated edited plants on media containing SAF", "details": "media containing SAF 2.5 μM", "procedure": "(§1) In other experiments, screening for resistance to PPO herbicides was done on 25 regenerated sugar beet plants obtained after transfection of guard cell protoplasts by growing these plants (8 clones or copies per plant) on media containing SAF at a concentration of 2.5 μM. Visual observation of growth was done after 20 to 28 days. Plants were scored visually according to their growth, and marked “OK” for plants showing growth, “Bit growth” for plants showing limited growth, “No” for plants showing no growth, or “Dead” for plants that were dead after SAF exposure. The concentration of SAF used in this screen was identified as impacting severely on regenerated wild-type plants obtained after protoplast isolation and regeneration from the sugar beet genotype, from which guard cell protoplasts are isolated for transfection."}, "[2]": {"test_system": "sugar beet plants carrying the R126L mutation", "details": "SAF 1X, 200 g a.i./ha, 17 days after spraying", "procedure": "(§2) In other experiments, plants carrying the mutation R126L described below in Table 6 were acclimatized in soil for 3-5 weeks and screened for PPO resistance with a spray test of the PPO herbicides Saflufenacil (Brand name TREEVIX at a recommended dose of 200 g a.i./ha), Pyraflufen-ethyl (Brand name EVOLUTION at a recommended dose of 0.8l/ha, or a.i. 26.5 g/l) Saflufenacil (pure compound Sigma at a recommended dose of 200 g a.i./ha). The spray was performed at a concentration of 0.5× and 1× of the recommended dose for Saflufenacil), and 0.2× for Pyraflufen-ethyl). The pure chemical compound SAF used on the regenerated plants in vitro was also used in this screen at 1× recommended dose of 200 g ai/Ha. Water treatment was included as a control. […] In both experiments each sugar beet plant was multiplied in vitro as to include a total of minimum 4 clones or replicates of each edited sugar beet plant per herbicide treatment. The phytotoxicity effect of PPO inhibiting herbicides was measured in mutated sugar beet plants (on a set of minimum 4 clones per edited sugar beet plant) based on a scale from 0% to 100%, or 1 to 5, (i.e. 0% or 1 being no damage/no phytotoxicity observed and 100% or 5, being all plants were completely damaged or killed,) compared to wild-type plants. […]\n(§3) No score is provided when the plant has not been tested, noted as NT in the table (not tested). Water treatment was included when enough plants were available. At least 4 copies per edited plant were sprayed. Scores were given on group of 4 copies per edited plant. HDR=edited plant showing the expected mutation R to L at position 126, INDEL=edited plant showing another type of edit than the expected mutation."}, "[3]": {"test_system": "sugar beet plants edited at position 126 showing another type of edit than the expected mutation", "details": "SAF 1X, 200 g a.i./ha, 17 days after spraying", "procedure": "as §2, §3"}, "[4]": {"test_system": "regenerated wild-type sugar beet plants", "experiment": "In vitro growth of regenerated wild-type plants on media containing SAF", "details": "media containing SAF 2.5 μM; wild-type genotype", "procedure": "as §1"}, "[5]": {"test_system": "wild-type sugar beet plants", "experiment": "Spray test of PPO herbicides on control (Ctrl) sugar beet plants", "details": "SAF 1X, 200 g a.i./ha, 17 days after spraying", "procedure": "as §2\nNo score is provided when the plant has not been tested, noted as NT in the table (not tested). […]"}},
  "note": "Where two headings read alike, the source gives them in different places.",
  "data": [
    {"smiles": "CC(C)N(C)S(=O)(=O)NC(=O)c1cc(-n2c(=O)cc(C(F)(F)F)n(C)c2=O)c(F)cc1Cl", "note": "[SAF, saflufenacil]", "values": [
      {"measurement": "growth of edited plants (visual)", "setting": "[1]; 20 to 28 days, edited plants scored as OK and Bit growth", "value": "good level of SAF tolerance"},
      {"measurement": "growth and plant development of edited versus wild-type plants (visual)", "setting": "[1]; 20 days, HTC013 and HTC015 (R126L), 8 copies each, versus wild-type", "value": "Clear differences in growth, and plant development"},
      {"measurement": "phytotoxicity score 1 to 5 (healthy to damaged)", "setting": "[2]; event HTC003 (HDR)", "value": 4},
      {"measurement": "phytotoxicity score 1 to 5 (healthy to damaged)", "setting": "[2]; event HTC007 (HDR)", "value": 3},
      {"measurement": "phytotoxicity score 1 to 5 (healthy to damaged)", "setting": "[2]; event HTC013 (HDR)", "value": 2},
      {"measurement": "phytotoxicity score 1 to 5 (healthy to damaged)", "setting": "[2]; event HTC015 (HDR)", "value": 3},
      {"measurement": "phytotoxicity score 1 to 5 (healthy to damaged)", "setting": "[2]; event HTC018 (HDR)", "value": 2},
      {"measurement": "phytotoxicity score 1 to 5 (healthy to damaged)", "setting": "[2]; event HTC024 (HDR)", "value": 4},
      {"measurement": "phytotoxicity score 1 to 5 (healthy to damaged)", "setting": "[2]; event HTC046 (HDR)", "value": 2},
      {"measurement": "phytotoxicity score 1 to 5 (healthy to damaged)", "setting": "[2]; event HTC056 (HDR)", "value": 4},
      {"measurement": "phytotoxicity score 1 to 5 (healthy to damaged)", "setting": "[3]; event HTC001 (INDEL)", "value": 5},
      {"measurement": "phytotoxicity score 1 to 5 (healthy to damaged)", "setting": "[3]; event HTC002 (INDEL)", "value": 4},
      {"measurement": "phytotoxicity score 1 to 5 (healthy to damaged)", "setting": "[3]; event HTC009 (INDEL)", "value": 4},
      {"measurement": "phytotoxicity score 1 to 5 (healthy to damaged)", "setting": "[3]; event HTC012 (INDEL)", "value": 4},
      {"measurement": "phytotoxicity score 1 to 5 (healthy to damaged)", "setting": "[3]; event HTC014 (INDEL)", "value": 4},
      {"measurement": "phytotoxicity score 1 to 5 (healthy to damaged)", "setting": "[3]; event HTC016 (INDEL)", "value": 4},
      {"measurement": "phytotoxicity score 1 to 5 (healthy to damaged)", "setting": "[3]; event HTC017 (INDEL)", "value": 4},
      {"measurement": "phytotoxicity score 1 to 5 (healthy to damaged)", "setting": "[3]; event HTC021 (INDEL)", "value": 5},
      {"measurement": "phytotoxicity score 1 to 5 (healthy to damaged)", "setting": "[3]; event HTC023 (INDEL)", "value": 2},
      {"measurement": "phytotoxicity score 1 to 5 (healthy to damaged)", "setting": "[3]; event HTC028 (INDEL)", "value": 4},
      {"measurement": "effect on growth of regenerated wild-type plants (visual)", "setting": "[4]", "value": "severe growth retardation and in some cases lethal effect"},
      {"measurement": "phytotoxicity score 1 to 5 (healthy to damaged)", "setting": "[5]; B8M52 (Ctrl)", "value": 5},
      {"measurement": "phytotoxicity score 1 to 5 (healthy to damaged)", "setting": "[5]; HTC005 (Ctrl)", "value": 5}
    ]}
  ]
}
